Experimental data published in the NIST ThermoML archive (doi:10.1021/je100260z).
Where “and” joins values, the source holds several entries; their conditions need not be identical. Equal entries are not always repeated. Numbers after ± are expanded uncertainties.

Settings: Crystal, Torsion effusion method

What does the source list for `[F][Pb]([F])([F])[F]` [lead(IV) fluoride]?
vapor or sublimation pressure (603 K): 0.000566 ± 7e-05 kPa; vapor or sublimation pressure (612 K): 0.000677 ± 8.3e-05 kPa; vapor or sublimation pressure (622 K): 0.000844 ± 0.0001 kPa; vapor or sublimation pressure (628 K): 0.000844 ± 0.0001 kPa; vapor or sublimation pressure (631 K): 0.00097 ± 0.00012 kPa; vapor or sublimation pressure (634 K): 0.000942 ± 0.00012 kPa; vapor or sublimation pressure (635 K): 0.001062 ± 0.00013 kPa; vapor or sublimation pressure (638 K): 0.001116 ± 0.00014 kPa; vapor or sublimation pressure (639 K): 0.001116 ± 0.00014 kPa; vapor or sublimation pressure (644 K): 0.001259 ± 0.00015 kPa; vapor or sublimation pressure (645 K): 0.001139 ± 0.00014 kPa; vapor or sublimation pressure (647 K): 0.001209 ± 0.00015 kPa; vapor or sublimation pressure (648 K): 0.001336 ± 0.00016 kPa; vapor or sublimation pressure (653 K): 0.001297 ± 0.00016 kPa; vapor or sublimation pressure (654 K): 0.001492 ± 0.00018 kPa; vapor or sublimation pressure (657 K): 0.0016 ± 0.0002 kPa; vapor or sublimation pressure (658 K): 0.001448 ± 0.00018 kPa; vapor or sublimation pressure (663 K): 0.001584 ± 0.00019 kPa; vapor or sublimation pressure (664 K): 0.001751 ± 0.00021 kPa; vapor or sublimation pressure (666 K): 0.00184 ± 0.00023 kPa; vapor or sublimation pressure (668 K): 0.001751 ± 0.00021 kPa; vapor or sublimation pressure (669 K): 0.001896 ± 0.00023 kPa; vapor or sublimation pressure (670 K): 0.001974 ± 0.00024 kPa; vapor or sublimation pressure (673 K): 0.001878 ± 0.00023 kPa; vapor or sublimation pressure (675 K): 0.002096 ± 0.00026 kPa; vapor or sublimation pressure (676 K): 0.001974 ± 0.00024 kPa; vapor or sublimation pressure (682 K): 0.00234 ± 0.00029 kPa; vapor or sublimation pressure (684 K): 0.002203 ± 0.00027 kPa

For `[F][Pb][F]` [lead(II) fluoride], which “vapor or sublimation pressure” value (793 K) is on record?
The value was 0.000361 ± 3.9e-05 kPa.

What about the “vapor or sublimation pressure” value (798 K) of the same molecule?
The value was 0.000411 ± 4.4e-05 kPa.

And the “vapor or sublimation pressure” value (803 K)?
The value was 0.000411 ± 4.4e-05 kPa.

And the “vapor or sublimation pressure” value (808 K)?
Its value is 0.000454 ± 4.8e-05 kPa.

What about the “vapor or sublimation pressure” value (810 K) of the same molecule?
Its value is 0.000454 ± 4.8e-05 kPa.

What about the “vapor or sublimation pressure” value (811 K) of the same molecule?
Its value is 0.000487 ± 5.2e-05 kPa.

And the “vapor or sublimation pressure” value (816 K)?
Its value is 0.000522 ± 5.6e-05 kPa.

What about the “vapor or sublimation pressure” value (818 K) of the same molecule?
Its value is 0.000554 ± 5.9e-05 kPa.

And the “vapor or sublimation pressure” value (820 K)?
The value was 0.000554 ± 5.9e-05 kPa.

What about the “vapor or sublimation pressure” value (824 K) of the same molecule?
Its value is 0.000613 ± 6.5e-05 kPa.

What about the “vapor or sublimation pressure” value (825 K) of the same molecule?
The value was 0.000613 ± 6.5e-05 kPa.

And the “vapor or sublimation pressure” value (827 K)?
The value was 0.000613 ± 6.5e-05 kPa.

What about the “vapor or sublimation pressure” value (830 K) of the same molecule?
Its value is 0.000638 ± 6.8e-05 kPa.

What about the “vapor or sublimation pressure” value (833 K) of the same molecule?
Its value is 0.000664 ± 7.1e-05 kPa.

And the “vapor or sublimation pressure” value (835 K)?
Its value is 0.000705 ± 7.5e-05 kPa.

And the “vapor or sublimation pressure” value (837 K)?
Its value is 0.000748 ± 8e-05 kPa.

What about the “vapor or sublimation pressure” value (840 K) of the same molecule?
The value was 0.000771 ± 8.2e-05 kPa.

What about the “vapor or sublimation pressure” value (841 K) of the same molecule?
Its value is 0.000748 ± 8e-05 kPa.

What about the “vapor or sublimation pressure” value (845 K) of the same molecule?
Its value is 0.000861 ± 9.2e-05 kPa and 0.000827 ± 8.8e-05 kPa.

And the “vapor or sublimation pressure” value (846 K)?
Its value is 0.000827 ± 8.8e-05 kPa.

And the “vapor or sublimation pressure” value (852 K)?
The value was 0.000951 ± 0.0001 kPa.

What about the “vapor or sublimation pressure” value (854 K) of the same molecule?
Its value is 0.00098 ± 0.00011 kPa.

And the “vapor or sublimation pressure” value (856 K)?
Its value is 0.00101 ± 0.00011 kPa.

And the “vapor or sublimation pressure” value (858 K)?
The value was 0.00098 ± 0.00011 kPa.

What about the “vapor or sublimation pressure” value (859 K) of the same molecule?
The value was 0.00098 ± 0.00011 kPa.

And the “vapor or sublimation pressure” value (863 K)?
Its value is 0.001116 ± 0.00012 kPa.

What about the “vapor or sublimation pressure” value (867 K) of the same molecule?
Its value is 0.001185 ± 0.00013 kPa and 0.001116 ± 0.00012 kPa.

And the “vapor or sublimation pressure” value (868 K)?
The value was 0.001234 ± 0.00013 kPa.

And the “vapor or sublimation pressure” value (873 K)?
The value was 0.001323 ± 0.00014 kPa and 0.001284 ± 0.00014 kPa.

And the “vapor or sublimation pressure” value (875 K)?
Its value is 0.001323 ± 0.00014 kPa.

And the “vapor or sublimation pressure” value (876 K)?
Its value is 0.001284 ± 0.00014 kPa.

What about the “vapor or sublimation pressure” value (878 K) of the same molecule?
The value was 0.001391 ± 0.00015 kPa.

What about the “vapor or sublimation pressure” value (882 K) of the same molecule?
The value was 0.001507 ± 0.00016 kPa.

And the “vapor or sublimation pressure” value (883 K)?
The value was 0.001477 ± 0.00016 kPa.

And the “vapor or sublimation pressure” value (884 K)?
The value was 0.001419 ± 0.00015 kPa.

What about the “vapor or sublimation pressure” value (886 K) of the same molecule?
The value was 0.001507 ± 0.00016 kPa.

And the “vapor or sublimation pressure” value (890 K)?
The value was 0.001632 ± 0.00017 kPa.

And the “vapor or sublimation pressure” value (891 K)?
Its value is 0.001682 ± 0.00018 kPa.

And the “vapor or sublimation pressure” value (895 K)?
Its value is 0.001716 ± 0.00018 kPa.

And the “vapor or sublimation pressure” value (899 K)?
The value was 0.00184 ± 0.0002 kPa.

What about the “vapor or sublimation pressure” value (900 K) of the same molecule?
The value was 0.001896 ± 0.0002 kPa.

And the “vapor or sublimation pressure” value (903 K)?
The value was 0.001916 ± 0.0002 kPa.

What about the “vapor or sublimation pressure” value (904 K) of the same molecule?
The value was 0.001916 ± 0.0002 kPa.

And the “vapor or sublimation pressure” value (905 K)?
The value was 0.001896 ± 0.0002 kPa.

What about the “vapor or sublimation pressure” value (910 K) of the same molecule?
Its value is 0.002138 ± 0.00023 kPa and 0.002117 ± 0.00023 kPa.

What about the “vapor or sublimation pressure” value (912 K) of the same molecule?
The value was 0.002075 ± 0.00022 kPa.

And the “vapor or sublimation pressure” value (913 K)?
The value was 0.002096 ± 0.00022 kPa.

And the “vapor or sublimation pressure” value (914 K)?
Its value is 0.002203 ± 0.00023 kPa.

And the “vapor or sublimation pressure” value (919 K)?
The value was 0.002387 ± 0.00026 kPa.

And the “vapor or sublimation pressure” value (921 K)?
Its value is 0.002411 ± 0.00026 kPa.

What about the “vapor or sublimation pressure” value (923 K) of the same molecule?
Its value is 0.002387 ± 0.00026 kPa.

And the “vapor or sublimation pressure” value (928 K)?
The value was 0.002638 ± 0.00028 kPa.

What about the “vapor or sublimation pressure” value (931 K) of the same molecule?
Its value is 0.002664 ± 0.00028 kPa.

And the “vapor or sublimation pressure” value (933 K)?
Its value is 0.002746 ± 0.00029 kPa.

And the “vapor or sublimation pressure” value (934 K)?
The value was 0.002801 ± 0.0003 kPa.

What about the “vapor or sublimation pressure” value (948 K) of the same molecule?
The value was 0.003456 ± 0.00037 kPa.

And the “vapor or sublimation pressure” value (951 K)?
Its value is 0.003669 ± 0.00039 kPa.
